Read-outs that look alike come from different tables or passages of the source.
Legend:
[1] = Recent clinical trials, oral administration to asthmatic patients; assay type: in vivo; details: administered orally to asthmatic patients
Excerpt: This ability of compound 1 to be effective when administered orally is unusual and highly desirable.

Solubility in water = assay type: physicochemical
[2] = Acute toxicity study, mice; details: mouse, in vivo
Excerpt: (§1) Acute toxicity studies have been conducted on compound 1 in order to obtain LD50 values.

[3] = Acute toxicity study, rats; details: rat, in vivo
Excerpt: as §1

[4] = Physical stability of the physical forms / conversion between forms; assay type: physicochemical
[5] = Bioavailability of physical forms and compositions (general statement); details: in vivo
[6] = Comparison of bioavailability in dogs (compositions with polyvinylpyrrolidone and forms A, B and X); assay type: in vivo; details: 20 mg tablet with polyvinylpyrrolidone
Excerpt: During each study period, blood samples were periodically obtained from each animal and the concentration of compound 1 determined.

Question: With `COc1cc(C(=O)NS(=O)(=O)c2ccccc2C)ccc1Cc1cn(C)c2ccc(NC(=O)OC3CCCC3)cc12` [Compound 1, N-[4-[5-(cyclopentyloxycarbonyl)amino-l-methylindol-3-ylmethyl]-3-methoxybenzoyl]-2-methylbenzenesulphonamide] as the compound, how does the “effectiveness in the treatment of asthma” value [1] read?
Answer: Its value is “effective”.

Question: What about the solubility in water (Solubility in water) of the same compound?
Answer: Its solubility in water is “relatively poor solubility”.

Question: And the LD50 [2]?
Answer: Its LD50 is > 500 mg/kg.

Question: And the LD50 [3]?
Answer: Its LD50 is > 500 mg/kg.

Question: With `COc1cc(C(=O)NS(=O)(=O)c2ccccc2C)ccc1Cc1cn(C)c2ccc(NC(=O)OC3CCCC3)cc12` [Form A] as the compound, how does the “conversion of form A into form B” value ([4]; in compositions, high relative humidity and elevated temperatures) read?
Answer: Its value is “conversion of form A into form B has been found to occur”.

Question: What about the “stability of form A in the compositions” value ([4]; in the compositions according to the invention) of the same compound?
Answer: Its value is “acceptably stable”.

Question: And the “conversion into form B” value ([4]; in the presence of water)?
Answer: Its value is “tends to convert into form B”.

Question: And the bioavailability [5]?
Answer: The bioavailability was “relatively good bioavailability”.

Question: What about the Area under curve [6] of the same compound?
Answer: Its Area under curve is 4028 ng·h/mL.

Question: What about the Maximum concentration [6] of the same compound?
Answer: Its Maximum concentration is 1.004 µg/mL.

Question: What about the Half-life ([6]; dog, blood, po, 20 mg, read-out: Half-life (converted)) of the same compound?
Answer: Its Half-life is 5.4 h.

Question: With `COc1cc(C(=O)NS(=O)(=O)c2ccccc2C)ccc1Cc1cn(C)c2ccc(NC(=O)OC3CCCC3)cc12` [Form B, N-[4-[5-(cyclopentyloxycarbonyl)amino-l-methylindol-3-yl-methyl]-3-methoxybenzoyl]-2-methylbenzenesulphonamide] as the compound, how does the “temperature above which form B loses water” value [4] read?
Answer: Its value is “above 60 °C”.

Question: What about the Area under curve [6] of the same compound?
Answer: The Area under curve was 773 ng·h/mL.

Question: And the Half-life [6]?
Answer: Its Half-life is 3.524 h.

Question: And the Maximum concentration [6]?
Answer: Its Maximum concentration is 0.105 µg/mL.

Question: Which physical stability [4] does the source give for `COc1cc(C(=O)NS(=O)(=O)c2ccccc2C)ccc1Cc1cn(C)c2ccc(NC(=O)OC3CCCC3)cc12` [Form X] here?
Answer: Its physical stability is “physically stable”.

Question: What about the bioavailability [5] of the same compound?
Answer: The bioavailability was “relatively poor bioavailability”.

Question: And the Area under curve [6]?
Answer: Its Area under curve is 1307 ng·h/mL.

Question: And the Half-life [6]?
Answer: The Half-life was 3.590 h.

Question: What about the Maximum concentration [6] of the same compound?
Answer: The Maximum concentration was 0.314 µg/mL.

Question: Which physical stability [4] does the source give for `COc1cc(C(=O)NS(=O)(=O)c2ccccc2C)ccc1Cc1cn(C)c2ccc(NC(=O)OC3CCCC3)cc12` [forms B] here?
Answer: The physical stability was “physically stable”.

Question: What about the bioavailability [5] of the same compound?
Answer: The bioavailability was “relatively poor bioavailability”.

From patent US5319097A, “Pharmaceutical agents” (Imperial Chemical Industries PLC, priority 1990, dated 1994)
